Entries after “also recorded” stand apart in the source; their conditions may differ. Counter-ions that a name gives are not always drawn. Like-named read-outs stand apart in the source and are kept apart here.
What was measured:
[1] = tested on: HEK293 cells
[2] = tested on: HEK293T cells transfected with ACE2 and TMPRSS2, SARS-CoV-2 spike-mediated cell fusion; assay: cells; format: cell-based, human
[3] = tested on: Vero-E6 cells; assay: Toxicity by reduced cell count in the viral inhibition assay; settings: for host cell toxicity (reduced cell count): concentration not given
[4] = tested on: SARS-CoV-2 Isolate USA-WA1/2020; assay: In vitro viral inhibition assay in Vero-E6 cells (spike immunofluorescence); format: cell-based
[5] = tested on: Covid-19; settings: in vivo; cited from earlier work
[6] = human, in vivo; cited from earlier work
[7] = tested on: Calu-3 lung cancer cells, SARS-CoV-2 spike-mediated cell fusion; format: cell-based, human
[8] = tested on: Vero-E6 cells
[9] = HEK293 syncytia assay, dose-response
[10] = summary call Active / Not Tested, cell line not given
[11] = summary call Active / Not Tested

Molecule: CN(C)CCC(c1ccc(Br)cc1)c1ccccn1 (centres unmarked) [brompheniramine, Brompheniramine]
- cell loss / cytotoxicity (total GFP) [1, 9]: did not mirror cell loss
- inhibition of syncytia formation (cell fusion) [2]: impaired viral entry; also recorded: to a lesser extent, brompheniramine, showed dose-responsive inhibition of syncytia formation; also recorded: inhibited syncytia formation
- Syncytia Assay [2, 10]: Active

Molecule: O=C1[C@H](CC[C@H](O)c2ccc(F)cc2)[C@@H](c2ccc(O)cc2)N1c1ccc(F)cc1 [ezetimibe, Ezetimibe]
- cell numbers ([3]; 25 μM, Vero-E6): reduction in cell numbers was also observed
- reduction of spike protein-expressing populations ([4]; 25 μM (highest concentration studied), Vero-E6): reduced spike protein-expressing populations only at the highest concentration studied
- Viral Entry Assay [4, 11]: Active
- activity in the cell fusion assay [2]: inactive
- inhibition of syncytia formation (cell fusion) [2]: impaired viral entry; also recorded: had inhibitory activity in the cell fusion assay; also recorded: inhibited both viral infection and cell fusion
- potency in the cell fusion assay relative to the viral infection assay [2]: lower potency in the cell fusion assay
- Syncytia Assay [2, 10]: Active

Molecule: COCCCC/C(=N\OCCN)c1ccc(C(F)(F)F)cc1 [fluvoxamine]
- decrease of Covid-19 deaths [5]: 90%

Molecule: CCCCCCc1ccc(O)cc1O [hexylresorcinol, Hexylresorcinol]
- cell loss / cytotoxicity (total GFP) [1, 9]: mirrored by cell loss
- Syncytia Assay [2, 10]: Active

Molecule: CN(C)CCCN1c2ccccc2CCc2ccccc21 [imipramine, Imipramine hydrochloride]
- Syncytia Assay [2]: Active
- inhibition of syncytia formation (cell fusion) ([2]; hydrochloride): impaired viral entry; also recorded: inhibited syncytia formation

Molecule: C[C@]1(O)C[C@@H](c2nc(-c3ccc4ccc(-c5ccccc5)nc4c3)c3c(N)nccn32)C1 [linsitinib, Linsitinib]
- Cmax [6]: 5 to 10 µM
- inhibition of syncytia formation (cell fusion) [2]: impaired viral entry; also recorded: particularly effective; also recorded: most potent agent; also recorded: dose-responsive inhibition of syncytia formation; also recorded: complete inhibition of cell fusion; also recorded: substantially reduced spike-protein-dependent syncytia formation
- EC50 ([2]; Homo sapiens, HEK-293T, cell fusion (syncytia) assay): 25 µM
- inhibition of syncytia formation (cell fusion) ([2]; listed as Linsitinib): highest inhibitory activity
- inhibition of syncytia formation (cell fusion) ([2]; listed as linisitinib): highest inhibitory activity
- Syncytia Assay [2, 10]: Active

Molecule: N=C(N)c1ccc2cc(OC(=O)c3ccc(N=C(N)N)cc3)ccc2c1 [nafamostat]
- cell loss / cytotoxicity (total GFP) [1, 9]: did not mirror cell loss
- inhibition of syncytia formation (cell fusion) [7]: prevented syncytia formation

Molecule: CC(=O)c1c(O)c(C)c(O)c(Cc2c(O)c3c(c(C(=O)/C=C/c4ccccc4)c2O)OC(C)(C)C=C3)c1O [rottlerin, Rottlerin]
- host cell toxicity (reduced cell count) ([3]; Vero-E6): dose-limiting toxicity
- host cell toxicity (reduced cell count) ([3]; Vero-E6, listed as R077): dose-limiting toxicity as evidenced by reduced cell count
- antiviral activity / inhibition of SARS-CoV-2 infection in Vero-E6 cells ([4]; […], concentration not stated, listed as Rottlerin): inhibited viral infection
- Viral Entry Assay [4, 11]: Active

Molecule: OCc1cc(C(O)CNCCCCCCOCCCCc2ccccc2)ccc1O (centres unmarked) [salmeterol, Salmeterol]
- cell loss / cytotoxicity (total GFP) [1]: mirrored by cell loss
- Viral Entry Assay [4]: Active
- antiviral activity / inhibition of SARS-CoV-2 infection in Vero-E6 cells [4]: exhibited antiviral activities; also recorded: prevented viral infection; also recorded: particularly strong inhibitory activities; also recorded: particularly effective; also recorded: can block in vitro SARS-CoV-2 replication at clinically relevant concentrations
- antiviral effect on spike-expressing cell population [4]: reduced the median of the spike-expressing population; also recorded: greater antiviral effect on the entire population
- spike-positive cells [4]: ~14%
- host cell toxicity (reduced cell count) [8]: without apparent host cell toxicity
- Syncytia Assay [2]: Active
- inhibition of syncytia formation (cell fusion) [2]: had inhibitory activity in the cell fusion assay and full and not borne out by syncytia formation experiments with either HEK293T or Calu-3 cells, except at high concentration
- potency in the cell fusion assay relative to the viral infection assay [2]: at least two orders of magnitude less potent
- inhibition of syncytia formation (cell fusion) [7]: not borne out by syncytia formation experiments with either HEK293T or Calu-3 cells, except at high concentration

Molecule: Cc1cc(C)c(/C=C2\C(=O)Nc3ccccc32)[nH]1 [semaxanib, Semaxanib]
- Syncytia Assay [2, 10]: Active

Molecule: CO[C@H]1C[C@@H]2CC[C@@H](C)[C@@](O)(O2)C(=O)C(=O)N2CCCC[C@H]2C(=O)O[C@H]([C@H](C)C[C@@H]2CC[C@@H](OC(=O)C(C)(CO)CO)[C@H](OC)C2)CC(=O)[C@H](C)/C=C(\C)[C@@H](O)[C@@H](OC)C(=O)[C@H](C)C[C@H](C)/C=C/C=C/C=C/1C [temsirolimus, Temsirolimus]
- antiviral activity / inhibition of SARS-CoV-2 infection in Vero-E6 cells ([4]; […], concentration not stated): Qualitatively similar results to salmeterol
- Viral Entry Assay [4, 11]: Active

Molecule: CCC(=O)N1CCN(c2ccc(-n3c(=O)ccc4cnc5ccc(-c6cnc7ccccc7c6)cc5c43)cc2C(F)(F)F)CC1 [torin-1, Torin-1]
- toxicity ([3]; 100 nM): toxic
- antiviral activity / inhibition of SARS-CoV-2 infection in Vero-E6 cells ([4]; […], concentration not stated): Qualitatively similar results to salmeterol
- Viral Entry Assay [4, 11]: Active
- host cell toxicity (reduced cell count) [8]: dose-limiting toxicity as evidenced by reduced cell count

Molecule: Dec-RVKR-CMK
- cell loss / cytotoxicity (total GFP) [1, 9]: did not mirror cell loss
- inhibition of syncytia formation (cell fusion) ([2]; HEK293T acceptor cells with ACE2 and TMPRSS2, 1-2 h pretreatment, 4 h co-culture): prevented syncytia formation; also recorded: similarly potent in both cell types; also recorded: dose-responsive inhibition of syncytia formation
- inhibition of syncytia formation (cell fusion) ([7]; Calu-3 acceptor cells, 1-2 h pretreatment, 4 h co-culture): prevented syncytia formation; also recorded: seemingly larger maximal magnitude of inhibition

— patent US20240100018A1, “COMPOUNDS FOR THE TREATMENT OF A DISEASE OR DISORDER, METHODS FOR IDENTIFYING SAID COMPOUNDS” (priority 2021, published 2024)
